In publication PMC11111408, “Concurrent inhibition of oncogenic and wild-type RAS-GTP for cancer therapy” (Nature, 2024):
“And” between values parts separate entries of the source, which are not always exact repeats. Equal entries are not always repeated.

What was measured:
NCI-H441 CDX tumours = test: NCI-H441 CDX efficacy study; type: in vivo, mouse; details: NCI-H441 model, 10 mg kg^−1 daily oral, 28 days
Method: Xenograft studies were conducted at GenenDesign, Pharmaron, Wuxi AppTec, the laboratory of P. Lito, and the laboratory of C. Ambrogio. […] All procedures related to animal handling, care and treatment were conducted in compliance with all applicable regulations and guidelines of the relevant Institutional Animal Care and Use Committee (IACUC). […] Experimental details are supplied in the Supplementary Methods.

[1] = Mouse blood and tumour pharmacokinetics in NCI-H441 tumour bearing mice; details: for RMC-7977 (nmol/kg) Tumor: single dose, individual animals
Method: Tumour tissue samples were homogenized with a 10× volume of methanol/15 mM PBS (1:2, v:v). Sample preparation and analysis on a Sciex 6500+ triple quadrupole mass spectrometer equipped with an ACQUITY UPLC system were performed as previously described[12].
All datapoints shown, n = 3 per dose and timepoint.
Female BALB/c nude mice, NOD SCID and NSG mice 6-8 weeks old from Beijing Vital River/VR Laboratory Animal Co., LTD, Beijing AniKeeper Biotech Co., Ltd., Shanghai Sino-British SIPPR/BK Laboratory Animal Co., LTD and The Jackson Laboratory were used. Animals were housed in polycarbonate cages, in an environmentally monitored, well ventilated room maintained at a constant temperature of 20-26°C and relative humidity of 40-80%. Fluorescent lighting provided illumination approximately 12 hours per day. Each mouse was inoculated at the right flank with tumor cells (2x10^6-1x10^7) in 100-200 µL of media/PBS supplemented with Matrigel (1:1). Treatments were started when the average tumor size reached 100-250 mm^3. […] Mice on studies were weighed and tumor measurements collected twice weekly. […] Body weights were collected twice a week during the study. For single-dose pharmacokinetic/pharmacodynamics (PK/PD) study, mice were randomized into treatment groups when mean tumor volume reached 400-600 mm^3.

KRAS–RALGDS [2] = biological target: T1, KRAS–RALGDS (Homo sapiens, UniProt P01116, G12D); test: Cellular nano-BRET, full length RALGDS binding to KRAS G12C, G12D, G12V; type: cell-based; details: KRAS G12D, in the presence of CYPA, single replicates
T1 construct: expressed in transfected cells; host or cells: U2OS

KRAS–RALGDS [3] = biological target: T2, KRAS–RALGDS (Homo sapiens, UniProt P01116, G12V); test: as above; type: cell-based; details: KRAS G12V, in the presence of CYPA, single replicates
T2 construct: expressed in transfected cells; host or cells: U2OS

[4] = female, BALB/c nude, mouse, tumour, po, 10 mg/kg
[5] = female, BALB/c nude, mouse, whole blood, po, 10 mg/kg

SMILES: CCn1c(-c2cc(N3CCN(C4CC4)CC3)cnc2[C@H](C)OC)c2c3cc(ccc31)-c1csc(n1)C[C@H](NC(=O)[C@H]1[C@@H]3COC[C@@H]31)C(=O)N1CCC[C@H](N1)C(=O)OCC(C)(C)C2 [RMC-7977]
- mean tumour regression (NCI-H441 CDX tumours): 83%
- AUC(0-t) [1, 4]: 24300 ng·h/mL
- half-life [1, 4]: 18.3 h
- AUC(0-t) [1, 5]: 7240 ng·h/mL
- Cmax [1, 5]: 1110 ng/mL
- half-life [1, 5]: 2.78 h
- RMC-7977 (nmol/kg) Tumor ([1]; 8h, 1 mg/kg): 244 nmol/kg and 196 nmol/kg and 235 nmol/kg
- RMC-7977 (nmol/kg) Tumor ([1]; 8h, 5 mg/kg): 458 nmol/kg and 496 nmol/kg and 1040 nmol/kg
- RMC-7977 (nmol/kg) Tumor ([1]; 8h, 10 mg/kg): 998 nmol/kg and 832 nmol/kg and 1249 nmol/kg and 1135 nmol/kg and 713 nmol/kg and 1191 nmol/kg
- RMC-7977 (nmol/kg) Tumor ([1]; 8h, 25 mg/kg): 2289 nmol/kg and 4057 nmol/kg and 2196 nmol/kg
- RMC-7977 (nmol/kg) Tumor ([1]; 24h, 1 mg/kg): 38.1 nmol/kg and 54.8 nmol/kg and 48.3 nmol/kg
- RMC-7977 (nmol/kg) Tumor ([1]; 24h, 5 mg/kg): 201 nmol/kg and 183 nmol/kg and 226 nmol/kg
- RMC-7977 (nmol/kg) Tumor ([1]; 24h, 10 mg/kg): 310 nmol/kg and 343 nmol/kg and 320 nmol/kg and 402 nmol/kg and 316 nmol/kg and 606 nmol/kg
- RMC-7977 (nmol/kg) Tumor ([1]; 24h, 25 mg/kg): 1047 nmol/kg and 906 nmol/kg and 996 nmol/kg
- RMC-7977 (nmol/kg) Tumor ([1]; 48h, 1 mg/kg): 27 nmol/kg and 31.7 nmol/kg
- RMC-7977 (nmol/kg) Tumor ([1]; 48h, 5 mg/kg): 68.9 nmol/kg and 51.9 nmol/kg and 52.5 nmol/kg
- RMC-7977 (nmol/kg) Tumor ([1]; 48h, 10 mg/kg): 177 nmol/kg and 192 nmol/kg and 214 nmol/kg and 205 nmol/kg and 233 nmol/kg and 65.7 nmol/kg
- RMC-7977 (nmol/kg) Tumor ([1]; 48h, 25 mg/kg): 433 nmol/kg and 394 nmol/kg and 691 nmol/kg
- RMC-7977 (nmol/kg) Tumor ([1]; 72h, 5 mg/kg): 52.4 nmol/kg and 38.4 nmol/kg
- RMC-7977 (nmol/kg) Tumor ([1]; 72h, 10 mg/kg): 155 nmol/kg and 86.2 nmol/kg and 63.8 nmol/kg and 71.8 nmol/kg and 72 nmol/kg
- RMC-7977 (nmol/kg) Tumor ([1]; 72h, 25 mg/kg): 253 nmol/kg and 209 nmol/kg and 230 nmol/kg
- overall exposure in subcutaneous tumours compared with blood ([1]; subcutaneous xenograft tumour models): approximately threefold increase
- Cellular nano-BRET of RALGDS (full-length) binding to KRAS (KRAS–RALGDS [2]; RMC-7977 12.346 nM): 21.965 and 22.2278 and 22.7225 and 21.1836 and 19.9465 and 19.3916
- Cellular nano-BRET of RALGDS (full-length) binding to KRAS (KRAS–RALGDS [2]; RMC-7977 37.037 nM): 15.9727 and 15.3384 and 16.4816 and 15.5961 and 16.3731 and 14.4955
- Cellular nano-BRET of RALGDS (full-length) binding to KRAS (KRAS–RALGDS [2]; RMC-7977 111.111 nM): 13.7998 and 12.0846 and 13.3529 and 13.1019 and 13.0482 and 11.2251
- Cellular nano-BRET of RALGDS (full-length) binding to KRAS (KRAS–RALGDS [2]; RMC-7977 333.333 nM): 11.2999 and 11.1999 and 10.8448 and 10.0467 and 10.686 and 10.4797
- Cellular nano-BRET of RALGDS (full-length) binding to KRAS (KRAS–RALGDS [2]; RMC-7977 1000.000 nM): 10.2193 and 10.47 and 10.4459 and 10.0036 and 10.1066 and 10.1313
- Cellular nano-BRET of RALGDS (full-length) binding to KRAS (KRAS–RALGDS [3]; RMC-7977 4.115 nM): 30.1314 and 27.6913 and 29.7303 and 27.1744
- Cellular nano-BRET of RALGDS (full-length) binding to KRAS (KRAS–RALGDS [3]; RMC-7977 12.346 nM): 22.418 and 20.7842 and 21.8208 and 20.4059 and 22.2654 and 20.6652
- Cellular nano-BRET of RALGDS (full-length) binding to KRAS (KRAS–RALGDS [3]; RMC-7977 37.037 nM): 15.6693 and 15.6351 and 15.326 and 16.1305 and 15.8324 and 15.892
- Cellular nano-BRET of RALGDS (full-length) binding to KRAS (KRAS–RALGDS [3]; RMC-7977 111.111 nM): 12.652 and 12.1384 and 12.5044 and 12.7423 and 12.6511 and 12.657
